Data reported in US20080207653A1, “Compositions and Method for Increasing the Efficacy of Epidermal Growth Factor Receptor Tyrosine Kinase Inhibitors” (priority 2005, published 2008).

Tests used:
[1] = tested on: human lung cancer A549 cells; assay: Erlotinib accumulation and stereoisomerization in A549 cells and treatment media (LC-MS-MS); assay type: cell-based; settings: for conversion of parent drug to the 1.78 minute stereoisomer in the presence of cells: media with A549 cells
Experimental: Analysis of erlotinib metabolism was carried out using erlotinib-resistance cancer cells (human lung cancer A549 cells). Cells were exposed to achievable clinical doses (3 μM) of erlotinib and then lysed at various times following exposure to the drug. Relative erlotinib concentrations were determined in the A549 cell treatment media and compared to levels of erlotinib containing media incubated in the absence of cells as a control. Erlotinib concentrations were assessed using a liquid chromatography dual mass spectrometric method. […] Based on an analysis of chemical structure, only one stereoisomer of the parent drug could account for the 1.78 minute variant form. The stereoisomer migrating at 1.78 minutes represents the L or S configuration of this molecule, wherein the configuration is determined by performing liquid chromatographic separation of the two stereoisomers followed by nuclear magnetic resonance (NMR) analysis of each.
Culture of A549 human lung cancer cells were carried out in Ham's F12 media with L-glutamine containing 10% fetal bovine serum, amphoterecin B, penicillin, and streptomycin. Cells were plated at a density of 300,000 cells per well in a 6 well plate. Cells were allowed to adhere overnight, media was aspirated and 3 mL of treatment media containing 3 μM erlotinib was added to each well. At the same time, 3 mL of the same media was added to wells that contained no cells as a control. One hundred μL of the media was removed from the wells immediately prior to harvesting the cells at various time points. The remaining media was removed and 250 μL of distilled deionized water was added to each well. Cells were also disrupted with a rubber policeman. Each media or cell extract sample was brought to a 1 mL volume with methanol and water (final concentration 50% methanol). Fifty μL of 0.4 M ZnSO4 was added to each sample. Samples were vortexed for 10 seconds and centrifuged at 13,000 RCF for 5 minutes. The supernatants from each were subjected to LC-MS-MS chromatographic analysis using a Waters® Model 2795 system equipped with a Waters® X-Terra® MS column. The mobile phase was composed of 70% methanol containing 0.1% formic acid at a flow rate of 0.15 mL per minute. Dual mass spectroscopy was performed with 394 for the initial mass and 278 for the daughter ion (after collision using argon gas). Dual mass spectroscopic analysis of midazolam was used as an internal standard and was performed at the same time using 326 as the mass for the parent and 291 for the daughter ion. Data was collected and analyzed using Masslynx™ version 3.4 software.

human tumor xenografts = settings: animals; cited from earlier work
[2] = tested on: chemotherapy refractory non-small cell lung cancer; settings: cited from earlier work
cyclin D1 protein = settings: in vitro and in vivo, aerodigestive tract cancers; cited from earlier work

With `C#Cc1cccc(Nc2ncnc3cc(OCCOC)c(OCCOC)cc23)c1` [erlotinib, N-(3-ethynylphenyl)-6,7-bis(2-methoxyethoxy)quinazolin-4-amine] the “intracellular concentration of erlotinib by 8 hours” value ([1]; A549 cells, 3 μM erlotinib, 8 hours) was “nearly undetectable levels”, the “time at which intracellular concentrations of erlotinib peaked” value ([1]; A549 cells, 3 μM erlotinib, cell lysates) was 4 h and the “total erlotinib concentrations in the treatment media over the time course” value ([1]; A549 treatment media, 3 μM erlotinib) was “did not vary significantly”. For the same compound, the “stereoisomer present in the media in the absence of cells” value ([1]; control media without cells, throughout the time course) was “parent drug constituted the most abundant stereoisomer”, the “conversion of parent drug to the 1.78 minute stereoisomer in the presence of cells” value ([1]; 4 hours) was “some conversion” and the “conversion of parent drug to the 1.78 minute stereoisomer in the presence of cells” value ([1]; 8 hours) was “complete conversion”. For the same compound, the “dose inhibiting proliferation of human tumor xenografts” value (human tumor xenografts) was roughly 10 mg/kg, the “toxicity at clinical dose” value ([2]; doses in the range of 150 mg, patients) was “little reported toxicity” and the “dose showing the ability to affect tumor growth” value ([2]; patients with chemotherapy refractory non-small cell lung cancer) was roughly 150 mg. For the same compound, the “effect on expression of cyclin D1 protein” value (cyclin D1 protein) was “represses expression of cyclin D1 protein”.
